How the values were obtained:
[1] = Solution stability by UV-vis in PBS; assay type: physicochemical; settings: PBS pH 7.4, 37 °C; for Stability under physiological conditions (UV-vis spectrum over time): 24 h
Protocol: Solution chemistry. The stability of the dinuclear derivatives was analysed by absorption UV-vis spectroscopy. UV-vis absorption spectra of the complexes were recorded on a Thermo Scientific spectrophotometer. Solutions of the complexes (5 × 10^−5 M) in PBS (pH = 7.4) were prepared from 20 mM DMSO stock solutions and thereafter monitored over 24 h at 37 °C, measuring the electronic spectra.
The solution stability of the new heterometallic compounds was determined under physiological conditions. To simulate conditions similar to those in cell culture and the body, the compounds were dissolved in a phosphate-buffered saline solution (PBS) with a pH of 7.4 and then incubated at 37 °C. The UV spectra of each complex were recorded at different time intervals (Figure S14). Qualitative determination of the stability of the compounds under such conditions was achieved by comparing the spectra obtained at each time point.

[2] = molecular target: T1, bovine serum albumin (BSA) (Bos taurus, UniProt P02769); experiment: BSA UV-vis absorption superposition (static vs dynamic quenching); assay type: binding; settings: compound 24 μM, absorption spectra superposition
T1 construct: purchased Sigma Aldrich (St. Louis, MO, USA)
T1 sequence (P02769 25-607): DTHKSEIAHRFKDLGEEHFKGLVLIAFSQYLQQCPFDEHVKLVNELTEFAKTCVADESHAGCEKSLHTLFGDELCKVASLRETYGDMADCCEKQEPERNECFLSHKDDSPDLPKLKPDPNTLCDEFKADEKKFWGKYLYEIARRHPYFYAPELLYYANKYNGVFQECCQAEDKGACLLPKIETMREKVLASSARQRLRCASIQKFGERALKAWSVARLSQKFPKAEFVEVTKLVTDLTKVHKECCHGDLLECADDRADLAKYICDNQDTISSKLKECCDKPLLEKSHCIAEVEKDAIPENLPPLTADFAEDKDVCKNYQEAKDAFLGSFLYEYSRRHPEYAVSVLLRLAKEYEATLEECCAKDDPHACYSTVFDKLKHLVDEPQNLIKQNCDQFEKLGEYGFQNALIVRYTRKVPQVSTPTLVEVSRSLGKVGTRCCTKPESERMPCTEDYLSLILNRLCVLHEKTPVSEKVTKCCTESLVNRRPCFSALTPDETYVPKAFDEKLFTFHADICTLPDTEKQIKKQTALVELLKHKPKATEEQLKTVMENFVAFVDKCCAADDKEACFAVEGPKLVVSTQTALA
Protocol: Furthermore, examination of the absorption spectra of the fluorophores can be used as a means of characterising static and dynamic quenching. Given the premise that static quenching entails complex formation, alterations in the absorption spectra of BSA are to be anticipated. Conversely, since dynamic quenching only affects the excited states of BSA, its absorption spectra would remain unaltered. The absorption spectra of BSA were recorded in the absence and presence of each compound at a concentration of 24 μM, as well as the absorption spectrum of the compound at the same concentration. A mathematical superposition of the spectrum of BSA and the spectrum of the compounds was calculated.

[3] = test system: Caco-2/TC7 cells; experiment: MTT cell proliferation assay, Caco-2/TC7; assay type: cell-based, human; settings: 72 h, mean ± SE of at least three determinations
Protocol: (§1) Cell culture. Human colon cancer Caco-2 cells (PD7 and TC7 clones) were kindly provided by Dr. Edith Brot-Laroche (Université Pierre et Marie Curie-Paris 6, UMR S 872, Les Cordeliers, Lyon, France) and grown in Dulbecco’s Modified Eagles medium (DMEM) (Gibco Invitrogen, Paisley, UK) supplemented with 20% foetal bovine serum (FBS), 1% non-essential amino acids, 1% streptomycin (1000 μg/mL), 1% penicillin (1000 μg/mL), and 1% amphotericin (250 U/mL). Caco-2 cells were maintained at 37 °C in a humidified atmosphere at 5% CO2.
(§2) Cell proliferation assay. Cell proliferation was measured using the 3-(4,5-dimethyl-2-thiazoyl)-2,5-diphenyltetrazolium bromide (MTT) assay, as previously described. Caco-2/TC7 cells were seeded in a 96-well plate at a density of 4000 cells/well and grown for 24 h before being treated with each complex or DMSO (used as control). After 72 h of incubation with the complexes, 10 μL of MTT (5 mg/mL) were added and incubation was continued at 37 °C for 3 h. Inversion removed the medium and 100 μL of DMSO were added to each well. Absorbance at 560 nm, proportional to many living cells, was measured by spectrophotometry (SPECTROstar Nano, BMG LABTECH, Ortenberg, Germany) and converted into a percentage (%) of growth inhibition.
(§3) The antiproliferative effects of the mononuclear and heteropolinuclear complexes were tested on two different Caco-2 cancer cell lines (PD7 and […]). […] Caco-2 cells of both PD7 and TC7 clones were exposed to increasing concentrations of the assayed compounds through dose–response/cell viability analysis. The results in terms of the IC50 parameter (Table 4) were obtained by using the MTT protocol.

[4] = test system: Caco-2/PD7 cells; experiment: MTT cell proliferation assay, Caco-2/PD7; assay type: cell-based, human; settings: for Cytotoxic activity compared with mononuclear precursor [Au(Spy)(PTA)] (fold): Caco-2 PD7 and TC7 clones, ratio of IC50; for IC50: MTT, 72 h, mean ± SE of at least three determinations
Protocol: as §1, §2, §3

[5] = Distribution coefficient (logP7.4), n-octanol-water shake-flask; assay type: physicochemical; settings: n-octanol / buffered saline pH 7.4, shake-flask
Protocol: Distribution coefficient (logP7.4). The n-octanol-water coefficients of the complexes were determined using a shake-flask method, as previously reported. Briefly, buffered-saline distilled water (100 mL, phosphate buffer [PO4^3−] = 10 mM, [NaCl] = 0.15 M, pH 7.4) and n-octanol (100 mL) were shaken together for 72 h to allow for saturation of both phases. Approximately 1 mg of the complexes was dissolved in 5 mL of the aqueous phase and 5 mL of the organic phase was added, mixing them for 10 min. The resulting emulsion was centrifuged to separate the phases. The concentration of the compounds in each phase was determined using UV-vis absorbance spectroscopy. The logP7.4 was defined as log{[compound(organic)]/[compound(aqueous)]}.

Substance | Solubility in PBS (qualitative) [1] | Stability under physiological conditions (UV-vis spectrum over time) [1] | Quenching / binding mode with BSA [2] | IC50 [3] [nM] | Cytotoxic activity compared with mononuclear precursor [Au(Spy)(PTA)] (fold) ([4]; listed as Au2Cu compound (2)) | IC50 [4] [nM] | logP [5] | Cytotoxic activity compared with mononuclear precursor [Au(Spy)(PTA)] (fold) [4]
[Cu{Au(Spy)(PTA)}2]PF6 [compound 1] | reduced solubility in PBS | notable stability | dynamic binding | 130 ± 70 | 15 | 160 ± 20 | 0.84 | 
[Zn{Au(PTA)(Spy)}2](NO3)2 [compound 2] | highly soluble | remained unaltered for a period of 24 h | static binding mode may be implied | 1940 ± 810 |  | 2180 ± 240 | 0.47 | slight improvement

From PMC11351612, “Heteronuclear Complexes with Promising Anticancer Activity against Colon Cancer” (Biomedicines, 2024)
